From patent publication US10842779B2, “Heterocyclic compounds and their use in preventing or treating bacterial infections” (priority 2015, dated 2020)
Where two headings read alike, the source gives them in different places.

Experiments:
Experiment in all cases: MIC of compounds alone, broth microdilution
Format in all cases: cell-based
E. aerogenes = conditions: Klebsiella aerogenes
Experimental: (§1) Method 2: MIC of Compounds and Synergy with Ceftazidime Against Bacterial Isolates (Table 2 and 3)
(§2) Compounds of the present invention were assessed against genotyped bacterial strains alone or in combination with the β-lactam ceftazidime. In the assays, MICs of said compounds, or of ceftazidime at fixed concentrations of said compounds were determined by the broth microdilution method according to the Clinical Laboratory Standards Institute (CLSI—M7-A7). Briefly, compounds alone according to the invention were prepared in DMSO and spotted (2 μL each) on sterile polystyrene plates (Corning, 3788). Compounds and ceftazidime dilutions were prepared in DMSO and spotted (1 μL each) on sterile polystyrene plates (Corning, 3788). Log phase bacterial suspensions were adjusted to a final density of 5×10^5 cfu/mL in cation-adjusted Mueller-Hinton broth (Beckton-Dickinson) and added to each well (98 μL). Microplates were incubated for 16-20 h at 35° C. in ambient air. The MIC of the compounds was defined as the lowest concentration of said compounds that prevented bacterial growth as read by visual inspection. The MIC of ceftazidime at each compound concentration was defined as the lowest concentration of ceftazidime that prevented bacterial growth as read by visual inspection.

C. freundii = conditions: Citrobacter freundii
Experimental: as §1, §2

K. oxytoca = conditions: Klebsiella oxytoca
Experimental: as §1, §2

E. coli = conditions: Escherichia coli
Experimental: as §1, §2

P. mirabilis = conditions: Proteus mirabilis, PMI UFR82, beta-lactamases CMY-2
Experimental: as §1, §2

C. murliniae = test system: C. murliniae
Experimental: as §1, §2

K. pneumoniae = conditions: Klebsiella pneumoniae
Experimental: as §1, §2

P. aeruginosa = conditions: Pseudomonas aeruginosa
Experimental: as §1, §2

M. morganii = conditions: Morganella morganii, MMO 200321, beta-lactamases TEM-1, CTX-M-15 OXA-1
Experimental: as §1, §2

S. marcescens = conditions: Serratia marcescens, SMA UFR30, beta-lactamases OXA-405
Experimental: as §1, §2

E. cloacae = conditions: Enterobacter cloacae
Experimental: as §1, §2

In the case of `CC(C)(O/N=C(\C(=O)N[C@@H]1C(=O)N2C(C(=O)[O-])=C(C[n+]3ccccc3)CS[C@H]12)c1csc(N)n1)C(=O)O` [CAZ, ceftazidime, reference compound], the MIC (E. aerogenes) is reported as 128 µg/mL, the MIC (C. freundii) is reported as > 128 µg/mL and the MIC (C. freundii; alone, CFR UFR10, beta-lactamases OXA-48, read-out: MIC) is reported as 64 µg/mL. The MIC (C. freundii; alone, CFR UFR11, beta-lactamases TEM-1 OXA-1 OXA-48, read-out: MIC) was 8 µg/mL, the MIC (K. oxytoca) was 128 µg/mL and the MIC (E. coli; ECO 180070, beta-lactamases TEM-1, CTX-M-15, read-out: MIC) was 64 µg/mL. For the same molecule, the MIC (E. coli; ECO 190314, beta-lactamases CTX-M-1, read-out: MIC) was 8 µg/mL, the MIC (E. coli; ECO 190317, beta-lactamases TEM-1, SHV-12, CTX-M-15 OXA-1) was 128 µg/mL and the MIC (E. coli; ECO 190457, beta-lactamases CTX-M-15 OXA-1, read-out: MIC) was 16 µg/mL. It also gave an MIC (E. coli; ECO 190549, beta-lactamases CTX-M-1, read-out: MIC) of 8 µg/mL, an MIC (E. coli; ECO 200159, beta-lactamases TEM-1, CTX-M-14, read-out: MIC) of 2 µg/mL and an MIC (E. coli; ECO 200259, beta-lactamases CTX-M-14, read-out: MIC) of 4 µg/mL. It also gave an MIC (E. coli; ECO 200344, beta-lactamases CTX-M-1, read-out: MIC) of 16 µg/mL, an MIC (E. coli; ECO 260096, beta-lactamases CTX-M-132) of 128 µg/mL and an MIC (E. coli; ECO 260304, beta-lactamases CTX-M-15, read-out: MIC) of 16 µg/mL. For the same molecule, the MIC (E. coli; ECO 260508, beta-lactamases TEM-1, CTX-M-15 OXA-1) was 128 µg/mL, the MIC (E. coli; ECO UFR16, beta-lactamases TEM-1, CTX-M-15 OXA-1 OXA-48, read-out: MIC) was 64 µg/mL and the MIC (E. coli; ECO UFR17, beta-lactamases TEM-1, CTX-M-15 CMY-2 OXA-1 OXA-181) was > 128 µg/mL. For the same molecule, the MIC (E. coli; ECO UFR18, beta-lactamases CTX-M-15 OXA-204) was > 128 µg/mL, the MIC (E. coli; ECO UFR19, beta-lactamases CTX-M-15 CMY-2 OXA-1 OXA-204) was 128 µg/mL and the MIC (E. coli; ECO UFR32, beta-lactamases TEM-1, VEB-1 OXA-10) was > 128 µg/mL. The MIC (E. coli; ECO UFR39, beta-lactamases CTX-M-15 NDM-1) was > 128 µg/mL, the MIC (E. coli; ECO UFR41, beta-lactamases TEM-1, CTX-M-15 CMY-2 OXA-1 NDM-4) was > 128 µg/mL and the MIC (E. coli; ECO UFR45, beta-lactamases TEM-1 CMY-4 OXA-1 OXA-48 VIM-1, read-out: MIC) was 2 µg/mL. For the same molecule, the MIC (E. coli; ECO UFR52, beta-lactamases TEM-1, SHV-12 IMP-8) was > 128 µg/mL, the MIC (E. coli; ECO UFR61O, beta-lactamases TEM-1 KPC-2) was 128 µg/mL and the MIC (E. coli; ECO UFR62, beta-lactamases TEM-1, CTX-M-9 KPC-2, read-out: MIC) was 16 µg/mL. For the same molecule, the MIC (E. coli; ECO UFR74, beta-lactamases SHV-1 DHA-1) was 128 µg/mL, the MIC (P. mirabilis) was 4 µg/mL and the MIC (C. murliniae) was > 128 µg/mL. It also gave an MIC (K. pneumoniae; BAA1898, alone, KPN BAA-1898, beta-lactamases TEM-1, SHV-11, SHV-12 KPC-2) of 256 µg/mL, an MIC (K. pneumoniae; alone, KPN 6299, beta-lactamases TEM-1, SHV-11 OXA-163) of 256 µg/mL and an MIC (K. pneumoniae; alone, KPN 110376, beta-lactamases TEM-1, SHV-1, CTX-M-15 OXA-1 OXA-48) of 128 µg/mL. For the same molecule, the MIC (K. pneumoniae; alone, KPN 131119, beta-lactamases TEM-1, SHV-11, CTX-M-15 OXA-1 OXA-48) was > 128 µg/mL, the MIC (K. pneumoniae; alone, KPN 160143, beta-lactamases TEM-1, SHV-1, CTX-M-15 KPC-2 OXA-1) was 128 µg/mL and the MIC (K. pneumoniae; alone, KPN 190128, beta-lactamases TEM-1, SHV-32, CTX-M-15 OXA-1) was > 128 µg/mL. The MIC (K. pneumoniae; alone, KPN 190270, beta-lactamases TEM-1, SHV-76, CTX-M-15 OXA-1) was > 128 µg/mL, the MIC (K. pneumoniae; alone, KPN 190425, beta-lactamases TEM-1, SHV-1, CTX-M-15 OXA-1) was > 128 µg/mL and the MIC (K. pneumoniae; alone, KPN 190551, beta-lactamases TEM-1, SHV-1, CTX-M-15 OXA-1, read-out: MIC) was 64 µg/mL. For the same molecule, the MIC (K. pneumoniae; alone, KPN 200047, beta-lactamases TEM-1, SHV-32, CTX-M-15 OXA-1) was 128 µg/mL, the MIC (K. pneumoniae; alone, KPN 200327, beta-lactamases TEM-1, SHV-1, CTX-M-15 OXA-1, read-out: MIC) was 32 µg/mL and the MIC (K. pneumoniae; alone, KPN 260251, beta-lactamases TEM-1, SHV-11, SHV-12, CTX-M-15 KPC-2) was > 128 µg/mL. The MIC (K. pneumoniae; alone, KPN 260252, beta-lactamases TEM-1, SHV-11 KPC-3) was > 128 µg/mL, the MIC (K. pneumoniae; alone, KPN 260376, beta-lactamases SHV-1, SHV-49 OXA-1) was 128 µg/mL and the MIC (K. pneumoniae; alone, KPN 270077, beta-lactamases TEM-1, SHV-1, CTX-M-15) was 128 µg/mL. For the same molecule, the MIC (K. pneumoniae; alone, KPN 700603, beta-lactamases SHV-18 OXA-2, read-out: MIC) was 64 µg/mL, the MIC (K. pneumoniae; alone, KPN 6122012, beta-lactamases SHV-1 NDM-1) was > 128 µg/mL and the MIC (K. pneumoniae; alone, KPN ARA, beta-lactamases TEM-1, SHV-11, CTX-M-15 OXA-1 OXA-48) was > 128 µg/mL. The MIC (K. pneumoniae; alone, KPN LIB, beta-lactamases SHV-11 OXA-48, read-out: MIC) was 0.25 µg/mL, the MIC (K. pneumoniae; alone, KPN UFR22_O, beta-lactamases TEM-1, SHV-1 OXA-48, read-out: MIC) was 2 µg/mL and the MIC (K. pneumoniae; alone, KPN UFR24, beta-lactamases TEM-1, SHV-2, SHV-11 OXA-1 OXA-48 OXA-47) was > 128 µg/mL. The MIC (K. pneumoniae; alone, KPN UFR25, beta-lactamases TEM-1, SHV-11, CTX-M-15 OXA-162) was 128 µg/mL, the MIC (K. pneumoniae; alone, KPN UFR27, beta-lactamases TEM-1, SHV-28, CTX-M-15 OXA-204) was > 128 µg/mL and the MIC (K. pneumoniae; alone, KPN UFR28, beta-lactamases TEM-1, SHV-1, CTX-M-15 OXA-1 OXA-232) was 128 µg/mL. For the same molecule, the MIC (K. pneumoniae; alone, KPN UFR42, beta-lactamases SHV-2, CTX-M-15 OXA-1 OXA-181 NDM-1) was > 128 µg/mL, the MIC (K. pneumoniae; alone, KPN UFR43, beta-lactamases SHV-11, CTX-M-15 CMY-2 OXA-1 NDM-1) was > 128 µg/mL and the MIC (K. pneumoniae; alone, KPN UFR53, beta-lactamases TEM-1 IMP-1) was > 128 µg/mL. The MIC (K. pneumoniae; alone, KPN UFR65, beta-lactamases TEM-1, SHV-11 KPC-2) was 128 µg/mL, the MIC (K. pneumoniae; alone, KPN UFR66, beta-lactamases TEM-1, SHV-11, CTX-M-15 KPC-2) was > 128 µg/mL and the MIC (K. pneumoniae; alone, KPN UFR68, beta-lactamases TEM-1, SHV-11, CTX-M-15 KPC-3) was > 128 µg/mL. The MIC (K. pneumoniae; alone, KPN UFR77, beta-lactamases CMY-2, read-out: MIC) was 64 µg/mL, the MIC (K. pneumoniae; alone, KPN UFR79, beta-lactamases DHA-1 OXA-1, read-out: MIC) was 32 µg/mL and the MIC (K. pneumoniae; alone, KPN UFR80, beta-lactamases SHV-11 DHA-1 OXA-1, read-out: MIC) was 0.5 µg/mL. The MIC (K. pneumoniae; alone, KPN UFR81, beta-lactamases TEM-1, SHV-1 DHA-1 OXA-48) was 128 µg/mL, the MIC (P. aeruginosa) was 128 µg/mL and the MIC (P. aeruginosa; CIP107051) was 256 µg/mL. The MIC (M. morganii) was 16 µg/mL, the MIC (S. marcescens) was 16 µg/mL and the MIC (E. cloacae; ECL 2185D, beta-lactamases OXA-163) was 128 µg/mL. The MIC (E. cloacae; ECL 190310, beta-lactamases AmpC) was > 128 µg/mL, the MIC (E. cloacae; ECL 190408, beta-lactamases TEM-1, CTX-M-15 OXA-1) was 128 µg/mL and the MIC (E. cloacae; ECL 200138, beta-lactamases AmpC) was > 128 µg/mL. For the same molecule, the MIC (E. cloacae; ECL 200322, beta-lactamases TEM-1, CTX-M-15 OXA-1) was > 128 µg/mL, the MIC (E. cloacae; ECL 260033, beta-lactamases AmpC) was > 128 µg/mL and the MIC (E. cloacae; ECL 260253, beta-lactamases TEM-1 KPC-3) was > 128 µg/mL. The MIC (E. cloacae; ECL 260323, beta-lactamases AmpC) was > 128 µg/mL, the MIC (E. cloacae; ECL 260508, beta-lactamases TEM-1, CTX-M-15, read-out: MIC) was 64 µg/mL and the MIC (E. cloacae; ECL HAN, beta-lactamases OXA-35) was > 128 µg/mL. For the same molecule, the MIC (E. cloacae; ECL NEM146383, beta-lactamases AmpC) was > 128 µg/mL, the MIC (E. cloacae; ECL P99, beta-lactamases AmpC) was 128 µg/mL and the MIC (E. cloacae; ECL UFR12, beta-lactamases CTX-M-9 OXA-48, read-out: MIC) was 2 µg/mL. For the same molecule, the MIC (E. cloacae; ECL UFR13, beta-lactamases TEM-1, SHV-12, CTX-M-9 OXA-48) was > 128 µg/mL, the MIC (E. cloacae; ECL UFR14, beta-lactamases TEM-1, SHV-12, CTX-M-15 DHA-1 OXA-1 OXA-48) was > 128 µg/mL and the MIC (E. cloacae; ECL UFR38, beta-lactamases CTX-M-15 NDM-1) was > 128 µg/mL. For the same molecule, the MIC (E. cloacae; ECL UFR51, beta-lactamases SHV-12 IMP-8) was > 128 µg/mL, the MIC (E. cloacae; ECL UFR60, beta-lactamases TEM-1, CTX-M-15 KPC-2) was > 128 µg/mL and the MIC (E. cloacae; ECL UFR70, beta-lactamases TEM-1, CTX-M-15 CMY-2 OXA-1) was > 128 µg/mL. The MIC (E. cloacae; ECL UFR84, beta-lactamases TEM-1 AmpC OXA-1) was > 128 µg/mL and the MIC (E. cloacae; ECL UFR85, beta-lactamases TEM-1, CTX-M-15 AmpC) was > 128 µg/mL.
